Each structure is given as a SMILES string.

In this test the target is T1, Inhibitor of nuclear factor kappa-B kinase subunit beta (Homo sapiens, UniProt O14920).
T1 sequence (O14920 whole entry): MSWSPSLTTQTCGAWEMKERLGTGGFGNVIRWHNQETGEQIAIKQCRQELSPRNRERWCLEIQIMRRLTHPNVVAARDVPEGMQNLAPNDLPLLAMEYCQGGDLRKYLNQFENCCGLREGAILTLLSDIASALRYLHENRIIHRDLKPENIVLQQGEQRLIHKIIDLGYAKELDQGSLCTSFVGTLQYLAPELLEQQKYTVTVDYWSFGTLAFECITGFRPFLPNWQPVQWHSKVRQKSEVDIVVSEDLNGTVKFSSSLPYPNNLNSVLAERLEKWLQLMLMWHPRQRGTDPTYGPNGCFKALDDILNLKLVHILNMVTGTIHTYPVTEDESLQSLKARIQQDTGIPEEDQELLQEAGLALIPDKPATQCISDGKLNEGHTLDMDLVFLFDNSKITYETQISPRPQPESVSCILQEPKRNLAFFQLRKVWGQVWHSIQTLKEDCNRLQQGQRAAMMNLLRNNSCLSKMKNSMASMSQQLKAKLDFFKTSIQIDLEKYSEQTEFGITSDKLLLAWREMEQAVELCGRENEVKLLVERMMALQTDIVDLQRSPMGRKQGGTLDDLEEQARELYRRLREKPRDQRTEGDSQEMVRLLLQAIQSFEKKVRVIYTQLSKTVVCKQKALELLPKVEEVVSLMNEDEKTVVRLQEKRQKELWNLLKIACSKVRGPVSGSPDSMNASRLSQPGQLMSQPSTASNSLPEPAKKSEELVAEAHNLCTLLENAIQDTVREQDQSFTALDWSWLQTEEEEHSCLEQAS
Briefly: Inhibition of human recombinant C-terminal FLAG-epitope-tagged IKK2 expressed in baculovirus using biotinylated IkappaBalpha peptide as substrate assessed as decrease in [gamma-33P]-ATP incorporation in substrate after 30 mins by scintillation counting method.

On to `CCC(=O)Nc1ccc2c(c1)-c1c(c(C(N)=O)nn1-c1ccc(S(N)(=O)=O)cc1)CC2`, for which the 50% inhibitory concentration (IC50) lay in the range of 1 to 10 µM. The result for `CC(C)CNc1ccc2c(c1)-c1c(c(C(N)=O)nn1-c1ccc(S(N)(=O)=O)cc1)CC2` reads 10 to 100 µM. With `NC(=O)c1nn(-c2ccc(S(N)(=O)=O)cc2)c2c1CCc1ccc(NC(=O)C3CC3)cc1-2` the figure was 1 to 10 µM; with `NC(=O)c1nn(-c2ccc(S(N)(=O)=O)cc2)c2c1CCc1ccc(NS(=O)(=O)c3ccc(F)cc3F)cc1-2`, 10 to 100 µM; with `CS(=O)(=O)Nc1ccc2c(c1)-c1c(c(C(N)=O)nn1-c1ccc(S(N)(=O)=O)cc1)CC2`, ≤ 1 µM. The result for `NC(=O)c1nn(-c2ccc(S(N)(=O)=O)cc2)c2c1CCc1ccc(NC(=O)C3CCC3)cc1-2` reads 1 to 10 µM; that for `NC(=O)c1nn(-c2ccc(S(N)(=O)=O)cc2)c2c1CCc1ccc(NS(=O)(=O)c3ccc(F)cc3)cc1-2`, 1 to 10 µM. In the case of `NC(=O)c1nn(-c2ccc(S(N)(=O)=O)cc2)c2c1CCc1ccc(NC(=O)Cc3ccccc3)cc1-2`, the IC50 is 1 to 10 µM. With `Cc1ccc(CNc2ccc3c(c2)-c2c(c(C(N)=O)nn2-c2ccc(S(N)(=O)=O)cc2)CC3)cc1` the figure was 10 to 100 µM; with `NC(=O)c1nn(-c2ccc(S(N)(=O)=O)cc2)c2c1CCc1ccc(NS(=O)(=O)c3ccc(-c4ccccn4)s3)cc1-2`, 10 to 100 µM. Turning to `COc1ccc(CNc2ccc3c(c2)-c2c(c(C(N)=O)nn2-c2ccc(S(N)(=O)=O)cc2)CC3)cc1`, the half-maximal inhibitory concentration (IC50) fell in the range of 1 to 10 µM. With `CC(=O)Nc1ccc2c(c1)-c1c(c(C(N)=O)nn1-c1ccc(S(N)(=O)=O)cc1)CC2` the figure was 10 to 100 µM; with `Cn1cnc(S(=O)(=O)Nc2ccc3c(c2)-c2c(c(C(N)=O)nn2-c2ccc(S(N)(=O)=O)cc2)CC3)c1`, 10 to 100 µM; with `NC(=O)c1nn(-c2ccc(S(N)(=O)=O)cc2)c2c1CCc1ccc(N)cc1-2`, ≤ 1 µM. In the case of `CC(C)S(=O)(=O)Nc1ccc2c(c1)-c1c(c(C(N)=O)nn1-c1ccc(S(N)(=O)=O)cc1)CC2`, the IC50 lay within 1 to 10 µM. Take `CC(C)C(=O)Nc1ccc2c(c1)-c1c(c(C(N)=O)nn1-c1ccc(S(N)(=O)=O)cc1)CC2`: the IC50 lay in the range of 1 to 10 µM.

`CCCS(=O)(=O)Nc1ccc2c(c1)-c1c(c(C(N)=O)nn1-c1ccc(S(N)(=O)=O)cc1)CC2`: the IC50 lay within 1 to 10 µM. The result for `NC(=O)c1nn(-c2ccc(S(N)(=O)=O)cc2)c2c1CCc1ccc(NS(=O)(=O)c3cccc4ccccc34)cc1-2` reads 10 to 100 µM; that for `COCC(=O)Nc1ccc2c(c1)-c1c(c(C(N)=O)nn1-c1ccc(S(N)(=O)=O)cc1)CC2`, 1 to 10 µM; that for `NC(=O)c1nn(-c2ccc(S(N)(=O)=O)cc2)c2c1CCc1ccc(NS(=O)(=O)c3ccc(Cl)c(Cl)c3)cc1-2`, 1 to 10 µM. On to `COc1ccc(C(=O)Nc2ccc3c(c2)-c2c(c(C(N)=O)nn2-c2ccc(S(N)(=O)=O)cc2)CC3)cc1`, for which the IC50 is ≤ 1 µM.

As to `NC(=O)c1nn(-c2ccc(S(N)(=O)=O)cc2)c2c1CCc1ccc(NS(=O)(=O)c3cc(Cl)ccc3Cl)cc1-2`, the IC50 was in the range of 1 to 10 µM.

As for `NC(=O)c1nn(-c2ccc(S(N)(=O)=O)cc2)c2c1CCc1ccc(NC(=O)c3ccco3)cc1-2`, the IC50 is 10 to 100 µM. With `NC(=O)c1nn(-c2ccc(S(N)(=O)=O)cc2)c2c1CCc1ccc(NC(=O)c3ccccc3)cc1-2` the figure was 1 to 10 µM; with `NC(=O)c1nn(-c2ccc(S(N)(=O)=O)cc2)c2c1CCc1ccc(NC(=O)c3ccc(C(F)(F)F)cc3)cc1-2`, 1 to 10 µM; with `CCNC(=O)Nc1ccc2c(c1)-c1c(c(C(N)=O)nn1-c1ccc(S(N)(=O)=O)cc1)CC2`, 1 to 10 µM. With `C[C@H](N)C(=O)Nc1ccc2c(c1)-c1c(c(C(N)=O)nn1-c1ccc(S(N)(=O)=O)cc1)CC2` the figure was 1 to 10 µM; with `NC(=O)c1nn(-c2ccc(S(N)(=O)=O)cc2)c2c1CCc1ccc(NS(=O)(=O)c3ccc(F)c(F)c3)cc1-2`, 10 to 100 µM; with `NC(=O)c1nn(-c2ccc(S(N)(=O)=O)cc2)c2c1CCc1ccc(NS(=O)(=O)CC(F)(F)F)cc1-2`, 1 to 10 µM. The result for `CN(C)c1cccc2c(S(=O)(=O)Nc3ccc4c(c3)-c3c(c(C(N)=O)nn3-c3ccc(S(N)(=O)=O)cc3)CC4)cccc12` reads 1 to 10 µM; that for `NC(=O)c1nn(-c2ccc(S(N)(=O)=O)cc2)c2c1CCc1ccc(NC(=O)C3CCCC3)cc1-2`, 1 to 10 µM.

For the compound `C[C@@H](N)C(=O)Nc1ccc2c(c1)-c1c(c(C(N)=O)nn1-c1ccc(S(N)(=O)=O)cc1)CC2`, the IC50 lay within 1 to 10 µM. The result for `CCS(=O)(=O)Nc1ccc2c(c1)-c1c(c(C(N)=O)nn1-c1ccc(S(N)(=O)=O)cc1)CC2` reads ≤ 1 µM; that for `Cc1ccc(S(=O)(=O)Nc2ccc3c(c2)-c2c(c(C(N)=O)nn2-c2ccc(S(N)(=O)=O)cc2)CC3)cc1`, 10 to 100 µM.

On to `NC(=O)c1nn(-c2ccc(S(N)(=O)=O)cc2)c2c1CCc1ccc(NC(=O)c3cccs3)cc1-2`, for which the IC50 was 10 to 100 µM.

`CCCC(=O)Nc1ccc2c(c1)-c1c(c(C(N)=O)nn1-c1ccc(S(N)(=O)=O)cc1)CC2`: the IC50 was in the range of 1 to 10 µM. In the case of `NC(=O)c1nn(-c2ccc(S(N)(=O)=O)cc2)c2c1CCc1ccc(NS(=O)(=O)C(F)(F)F)cc1-2`, the IC50 was in the range of 10 to 100 µM. The result for `NC(=O)c1nn(-c2ccc(S(N)(=O)=O)cc2)c2c1CCc1ccc(NS(=O)(=O)c3cccc4cnccc34)cc1-2` reads 1 to 10 µM; that for `NC(=O)c1nn(-c2ccc(S(N)(=O)=O)cc2)c2c1CCc1ccc(NC(=O)C3CCCCC3)cc1-2`, 1 to 10 µM.

In the case of `NC(=O)c1nn(-c2ccc(S(N)(=O)=O)cc2)c2c1CCc1ccc(NS(=O)(=O)c3ccc4cccnc4c3)cc1-2`, the 50% inhibitory concentration (IC50) was > 100 µM. The result for `NC(=O)c1nn(-c2ccc(S(N)(=O)=O)cc2)c2c1CCc1ccc(NS(=O)(=O)c3cc(Cl)c(Cl)cc3Cl)cc1-2` reads 1 to 10 µM. The result for `COc1ccc(S(=O)(=O)Nc2ccc3c(c2)-c2c(c(C(N)=O)nn2-c2ccc(S(N)(=O)=O)cc2)CC3)cc1` reads 10 to 100 µM. Turning to `NC(=O)c1nn(-c2ccc(S(N)(=O)=O)cc2)c2c1CCc1ccc(NC(=O)c3ccncc3)cc1-2`, the IC50 is ≤ 1 µM.

Turning to `NC(=O)c1nn(-c2ccc(S(N)(=O)=O)cc2)c2c1CCc1ccc(NS(=O)(=O)c3cccc4nonc34)cc1-2`, the IC50 fell in the range of 1 to 10 µM. With `NC(=O)c1nn(-c2ccc(S(N)(=O)=O)cc2)c2c1CCc1ccc([N+](=O)[O-])cc1-2` the figure was > 100 µM; with `NC(=O)c1nn(-c2ccc(S(N)(=O)=O)cc2)c2c1CCc1ccc(NS(=O)(=O)c3ccc(-c4ccccc4)cc3)cc1-2`, 1 to 10 µM. With `NC(=O)c1nn(-c2ccc(S(N)(=O)=O)cc2)c2c1CCc1ccc(NS(=O)(=O)Cc3ccccc3)cc1-2` the figure was 1 to 10 µM; with `NC(=O)c1nn(-c2ccc(S(N)(=O)=O)cc2)c2c1CCc1ccc(NS(=O)(=O)c3ccc(Cl)cc3)cc1-2`, 1 to 10 µM.

For `COc1ccc(C(=O)Nc2ccc3c(c2)-c2c(c(C(N)=O)nn2-c2ccc(S(N)(=O)=O)cc2)CC3)cc1OC`, the IC50 lay in the range of 1 to 10 µM. With `CCCCC(=O)Nc1ccc2c(c1)-c1c(c(C(N)=O)nn1-c1ccc(S(N)(=O)=O)cc1)CC2` the figure was 1 to 10 µM. The result for `CCCCS(=O)(=O)Nc1ccc2c(c1)-c1c(c(C(N)=O)nn1-c1ccc(S(N)(=O)=O)cc1)CC2` reads 1 to 10 µM. With `NC(=O)c1nn(-c2ccc(S(N)(=O)=O)cc2)c2c1CCc1ccc(NS(=O)(=O)c3ccc(Br)cc3)cc1-2` the figure was 1 to 10 µM. Turning to `NC(=O)c1nn(-c2ccc(S(N)(=O)=O)cc2)c2c1CCc1ccc(NC(=O)c3ccc(Cl)cc3)cc1-2`, the IC50 is ≤ 1 µM. With `Cc1nc(S(=O)(=O)Nc2ccc3c(c2)-c2c(c(C(N)=O)nn2-c2ccc(S(N)(=O)=O)cc2)CC3)cn1C` the figure was 10 to 100 µM; with `NC(=O)c1nn(-c2ccc(S(N)(=O)=O)cc2)c2c1CCc1ccc(NS(=O)(=O)c3cccc(C(F)(F)F)c3)cc1-2`, 10 to 100 µM. With `NC(=O)c1nn(-c2ccc(S(N)(=O)=O)cc2)c2c1CCc1ccc(NC(=O)c3ccc(F)cc3)cc1-2` the figure was ≤ 1 µM; with `NC(=O)c1nn(-c2ccc(S(N)(=O)=O)cc2)c2c1CCc1ccc(NCc3ccccc3)cc1-2`, 1 to 10 µM. On to `NC(=O)c1nn(-c2ccc(S(N)(=O)=O)cc2)c2c1CCc1ccc(NC(=O)Nc3ccccc3)cc1-2`, for which the IC50 lay within 1 to 10 µM. With `CC(=O)Nc1nc(C)c(S(=O)(=O)Nc2ccc3c(c2)-c2c(c(C(N)=O)nn2-c2ccc(S(N)(=O)=O)cc2)CC3)s1` the figure was 1 to 10 µM. The result for `CN(C)S(=O)(=O)c1ccc(-n2nc(C(N)=O)c3c2-c2cc(N)ccc2CC3)cc1` reads 1 to 10 µM. With `NC(=O)c1nn(-c2ccc(S(N)(=O)=O)cc2)c2c1CCc1ccc(NS(=O)(=O)c3ccc(Cl)cc3Cl)cc1-2` the figure was 1 to 10 µM. With `C=CCN(CC=C)S(=O)(=O)c1ccc(-n2nc(C(N)=O)c3c2-c2cc(N)ccc2CC3)cc1`, the IC50 is 1 to 10 µM. As to `NC(=O)c1nn(-c2ccc(S(N)(=O)=O)cc2)c2c1CCc1ccc(NCc3ccc(Cl)cc3)cc1-2`, the IC50 fell in the range of 10 to 100 µM.

By IC50 is commonly meant the point on the concentration scale where inhibition reaches its midpoint.

The record behind these values is ChEMBL document CHEMBL3879881, “Substituted pyrazolyl compounds for the treatment of inflammation” (2005).
